Laboratory results: publication PMC10094171, “Development of Novel Pt(IV)-Carbohydrate Derivatives as Targeted Anticancer Agents against Osteosarcoma” (International Journal of Molecular Sciences, 2023)

Legend:
SAOS-2 cells = test: 2D MTT cell viability assay, SAOS-2 osteosarcoma cells; format: cell-based, Human; conditions: SAOS-2, 2D, 72 h
Description: (§1) The drugs were reconstituted in dimethyl sulfoxide (DMSO) at 1 mg/mL concentration, before being diluted in culture media at the required concentration. A 2D in vitro screening of all the drugs was performed at 72 h in a wide concentration range (0.5; 1.5, 5, 15, 30, 60 and 100 µM) on the three different cell lines in terms of cell viability, and the IC50 was calculated. The cell morphology in the presence of the complexes was evaluated at 15 and 30 µM concentrations, for MG63 and SAOS-2 and hFOBs cells, respectively, according to the IC50 at 72 h. […] For the models, a composite hydroxyapatite-based scaffold (MgHA/Coll), as a bone-like matrix, was used in combination with MG63 cells.
(§2) Cell culture. […] The cell number and viability were determined using the trypan blue dye exclusion test, and all cell handling procedures were performed under a laminar flow hood in sterility conditions.
(§3) MTT cell viability assay. A quantitative analysis of cell viability was carried out by using MTT assay, following the manufacturer’s instructions. […] After 15 min of incubation under slight stirring conditions, the absorbance of formazan was read at 570 nm by using a Multiskan FC Microplate Photometer (Thermo Fisher Scientific, Waltham, MA, USA). The values of absorbance are directly proportional to the number of metabolic active cells in each well. […]

MG63 cells = test: 2D MTT cell viability assay, MG63 osteosarcoma cells; format: cell-based, Human
Description: as §1, §2, §3

hFOBs cells = test: 2D MTT cell viability assay, non-cancerous human foetal osteoblasts; format: cell-based; conditions: hFOBs (healthy cells), 72 h
Description: as §1, with “calculated.” for “calculated. The cell morphology in the presence of the complexes was evaluated at 15 and 30 µM concentrations, for MG63 and SAOS-2 and hFOBs cells, respectively, according to the IC50 at 72 h.”
as §2, §3
Statistical Analysis. […] The MTT results were further analysed using one-way analysis of variance (one-way ANOVA) and Dunnett’s multiple comparisons test. […]

[1] = system: MG63 cells on bone-mimetic scaffold; test: 3D scaffold-based osteosarcoma model (3D OS model), MTT cell viability; design: species or system Human; conditions: 15 µM, MG63 3D OS model
Description: as §1
Synthesis of bone-mimetic scaffolds. The Mg-doped hydroxyapatite collagen composite scaffolds were designed and synthesised at ISSMC of CNR of Italy. In brief, 150 g of collagen gel (1 wt%, Opocrin SpA, MO, Italy) was diluted into a phosphoric acid solution (2.4 g in 500 mL; H3PO4, 85 wt.%, Sigma-Aldrich) at room temperature to obtain an acidic aqueous homogenous suspension. […]
MTT cell viability assay. A quantitative analysis of cell viability was carried out by using MTT assay, following the manufacturer’s instructions. […]

In the case of `N.N.[Cl][Pt][Cl]` [Cisplatin, cis-[(NH3)2PtCl2], reference compound], the IC50 (SAOS-2 cells) is reported as 13.7 µM, the “effect on viable cells in 2D standard culture” value (MG63 cells; 15 µM, 2D standard culture, p-value ≤ 0.0001) is reported as “significantly reduced the viable cells” and the IC50 (MG63 cells; MG63, 2D, MTT, 72 h) is reported as 12.2 µM. For the same molecule, the IC50 (hFOBs cells) was 4.11 µM, the IC50 (hFOBs cells; listed as cisplatin) was 4.1 µM and the “effect on cell viability in 3D OS model” value [1] was “did not compromise the cell viability”.
